The subject of data set [1] is musculus extensor digitorum longus (EDL) muscle in the mdx mouse. Put plainly: Contractile properties (maximum force) of the musculus extensor digitorum longus measured in vitro at end of treatment of mdx mice. The class given is in vivo. The text has this:
The mdx mouse model is the most widely used and investigated animal model in the research of Duchenne muscular dystrophy since the early 1980ies. These mice are characterized by muscle weakness, histological evidence of myopathy and elevated serum levels of creatin kinase (CK) (cf. Bulfield et al. (1984) PNAS 81: 1189-1192). Herein, CK levels are a marker of the breakdown of CK-rich tissues such as skeletal muscles (rhabdomyolysis). The mutation in the mdx mouse is a nonsense mutation (C-to-T transition) in exon 23 that aborts full-length dystrophin expression (cf. Sicinski et al. (1989) Science 244: 1578-1580). Symptoms are moderate and the mean lifespan is reduced by about 25%. During the first two weeks after birth mdx mice are indistinguishable from wild-type mice. Then skeletal muscle necrosis starts until week 6 after birth and thereupon enters in a plateau phase characterized by muscle hypertrophy. […] Many aged mdx mice develop spontaneous sarcoma.
Mice were identified by ear tags. […] These cages were assigned randomly to treatment groups. Animals were monitored daily for changes in behavior.
The experiments were carried out by AGADA Biosciences (Halifax, Canada) on behalf of the applicant. All treatment substances were provided by the applicant. All treatment groups started with 15 mice. Treatment was blinded.
Contractile properties were measured in vitro on the right musculus extensor digitorum longus (EDL) at the end of the study. The mice were anesthetized using ketamine and xylamine. The EDL muscle of the right hindlimb was removed from each mouse and immersed in individual carbogenated baths (95% O2, 5% CO2) containing Ringer's solution (pH 7.4) at 25° C. The muscle was flanked by two electrodes. Using non-fatiguing twitches, the muscle was maintained at 10 mN for force generation. The maximal force was measured with the muscle held at 10 mN. The muscle was stimulated with an electrode to elicit tetanic contractions that are separated by 2-minute rest intervals. […] This plateau was considered the maximum force (mN) generated by the muscle. The cross-sectional area of the muscle was measured based on muscle mass, muscle length, and tissue density. Finally, the muscle specific force (kN/m^2) was calculated based on the cross-sectional area of the muscle and was converted in relation to the individual body weight ([…]).

Data set [2] in a line: Body weight of mdx mice measured weekly over the treatment period. To be noted: 1.0 mg/kg (prednisolone oral syrup, deflazacort IP).
Method: Animals were received in 2 cohorts (n=49-56; 7-8 per group). Mice were sorted into a total of five treatment groups. The mice of the control groups were wild type C57BL/10ScSnJ and the dmx strain C57BL/10ScSn-Dmdmdx/J. The animals were acclimatized upon arrival to the animal facility for 7 days, housed in cages with up to 5 mice per cage. During the study, 12-hour light/11-hour dark cycles were maintained. Room temperature was maintained between 20° C. and 23° C. Food and water were available ad libitum for the duration of the study. Mice were identified by ear tags. Randomization was done based on the average body weight of the cage. These cages were assigned randomly to treatment groups. Animals were monitored daily for changes in behavior. […]
All treatment compounds were administered via intraperitoneal (IP) injection, with exception of prednisolone that was delivered via oral syrup. […] Once the injection was delivered, the mouse was monitored for a couple of minutes for any adverse side effects. […] Once the complete treatment was delivered the mouse was placed back into its cage and monitored for a couple of minutes for any adverse side effects.
The body weight was measured weekly starting after acclimation of the animals to the facility and the beginning of the treatment (5 weeks of age). […]
The mark [3] stands for this setting: mdx mice, 1.0 mg/kg (prednisolone oral syrup, deflazacort IP).
The mark [4] stands for this setting: mdx mice, 1.0 mg/kg (prednisolone oral syrup, deflazacort IP), right EDL in Ringer's solution 25° C., mean ±SEM.

SMILES strings stand for the structures.

Consider `Nc1cccc2c(=O)[nH][nH]c(=O)c12.[Na]` [5-amino-2,3-dihydro-1,4-phthalazinedione sodium salt], for which, in data set [1] (mouse, in vivo), the “dose dependence of the maximum force generated by the muscle” value is “dose-dependent improvement”. In data set [1] (mouse, in vivo, ip, 5 mg/kg), the “maximum force generated by the muscle (EDL), related to body weight” value (“maximum force generated … to body weight” below) is reported as 106.1±8.0 mN/kg and the “percentual improvement of maximum force in comparison to the untreated mdx mice control group (set as 100%)” value (from here on “percentual improvement … (set as 100%)”) came to 16.4%.

`CC(=O)OCC(=O)[C@@]12N=C(C)O[C@@H]1C[C@H]1[C@@H]3CCC4=CC(=O)C=C[C@]4(C)[C@H]3[C@@H](O)C[C@@]12C` [deflazacort]: the “percentual improvement … (set as 100%)” value in data set [1] (setting [3]) was 6.2%. Moreover, the “maximum force generated … to body weight” value in data set [1] (setting [4]) is 96.8±5.2 mN/kg.

For the compound `C[C@]12C=CC(=O)C=C1CC[C@@H]1[C@@H]2[C@@H](O)C[C@@]2(C)[C@H]1CC[C@]2(O)C(=O)CO` [prednisolone], the “percentual improvement … (set as 100%)” value in data set [1] (setting [3]) is reported as 18.0%. The “maximum force generated … to body weight” value in data set [1] (setting [4]) is 107.5±7.2 mN/kg. Also, in data set [2] (from about week 6), the “difference in body weight (diminished increase)” value was “about 7%”. For the same compound, the “body weight increase over the treatment” value in data set [2] (weeks of age 5-10, starting at about week 6) is “significantly diminished body weight increase”.

Values taken from patent publication US20250064801A1, “USE OF 5-AMINO-2,3-DIHYDRO-1,4-PHTHALAZINEDIONE IN THE TREATMENT OF CONGENITAL MUSCULAR DYSTROPHIES” (METROPHARM AG, priority 2022, published 2025).
